Test system: 439559-082-T-J2-PDC spheroids viability
Experiment: Anticancer human tumor 439559-082-T-J2-PDC patient-derived colon adenocarcinoma cell line growth inhibition [GQUAD]
Settings: for IC50: curve of first compound; for viability, T/C: stronger effect = lower value
Method in brief: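 Tumor cells were grown as complex spheroids with HUVEC endothelial cells and mesenchymal stem cells as stroma. G-quadruplex stabilizers were combined with targeted agents over half-log dilutions from near the clinical Cmax, or from 10 microM.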

[1] = second compound 0.0316 µM, first compound 0.0316 µM
[2] = second compound 0.0316 µM, first compound 0.1 µM
[3] = second compound 0.0316 µM, first compound 0.316 µM
[4] = second compound 0.0316 µM, first compound 1 µM
[5] = second compound 0.0316 µM, first compound 3.16 µM
[6] = second compound 0.0316 µM, first compound 10 µM
[7] = second compound 0.1 µM, first compound 0.0316 µM
[8] = second compound 0.1 µM, first compound 0.1 µM
[9] = second compound 0.1 µM, first compound 0.316 µM
[10] = second compound 0.1 µM, first compound 1 µM
[11] = second compound 0.1 µM, first compound 3.16 µM
[12] = second compound 0.1 µM, first compound 10 µM
[13] = second compound 0.316 µM, first compound 0.0316 µM
[14] = second compound 0.316 µM, first compound 0.1 µM
[15] = second compound 0.316 µM, first compound 0.316 µM
[16] = second compound 0.316 µM, first compound 1 µM
[17] = second compound 0.316 µM, first compound 3.16 µM
[18] = second compound 0.316 µM, first compound 10 µM
[19] = second compound 1 µM, first compound 0.0316 µM
[20] = second compound 1 µM, first compound 0.1 µM
[21] = second compound 1 µM, first compound 0.316 µM
[22] = second compound 1 µM, first compound 1 µM
[23] = second compound 1 µM, first compound 3.16 µM
[24] = second compound 1 µM, first compound 10 µM
[25] = second compound 3.16 µM, first compound 0.0316 µM
[26] = second compound 3.16 µM, first compound 0.1 µM
[27] = second compound 3.16 µM, first compound 0.316 µM
[28] = second compound 3.16 µM, first compound 1 µM
[29] = second compound 3.16 µM, first compound 3.16 µM
[30] = second compound 3.16 µM, first compound 10 µM
[31] = second compound 10 µM, first compound 0.0316 µM
[32] = second compound 10 µM, first compound 0.1 µM
[33] = second compound 10 µM, first compound 0.316 µM
[34] = second compound 10 µM, first compound 1 µM
[35] = second compound 10 µM, first compound 3.16 µM
[36] = second compound 10 µM, first compound 10 µM
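Also: spheroids exposed to the agents for 7 days before readout.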
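For viability, T/C in this document: percent of luminescence signal in DMSO vehicle wells taken as 100% viability.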

COc1cccc2c1C(=O)c1c(O)c3c(c(O)c1C2=O)CC(O)(C(=O)CO)CC3OC1CC(N)C(O)C(C)O1 (stereo unspecified) + Cc1cnc(CNC(=O)c2c(=O)c3ccc(N4CCCN(C)CC4)nc3n3c2sc2ccccc23)cn1
IC50 (second compound 0.0316 µM): 4050 nM | IC50 (second compound 0.1 µM): 5350 nM | IC50 (second compound 0.316 µM): 7150 nM | IC50 (second compound 1 µM): 6800 nM | IC50 (second compound 3.16 µM): 4510 nM | IC50 (second compound 10 µM): 3830 nM | viability, T/C [1]: 99% | viability, T/C [2]: 95.1% | viability, T/C [3]: 87.3% | viability, T/C [4]: 77.6% | viability, T/C [5]: 48.9% | viability, T/C [6]: 45.3% | viability, T/C [7]: 101% | viability, T/C [8]: 96.7% | viability, T/C [9]: 89.6% | viability, T/C [10]: 70.3% | viability, T/C [11]: 54.3% | viability, T/C [12]: 45.3% | viability, T/C [13]: 79.9% | viability, T/C [14]: 73% | viability, T/C [15]: 69.6% | viability, T/C [16]: 79.3% | viability, T/C [17]: 57.2% | viability, T/C [18]: 45.9% | viability, T/C [19]: 70% | viability, T/C [20]: 73.3% | viability, T/C [21]: 69.7% | viability, T/C [22]: 63.6% | viability, T/C [23]: 61.6% | viability, T/C [24]: 44.7% | viability, T/C [25]: 71% | viability, T/C [26]: 67.2% | viability, T/C [27]: 65% | viability, T/C [28]: 60.3% | viability, T/C [29]: 55.3% | viability, T/C [30]: 41.1% | viability, T/C [31]: 63.3% | viability, T/C [32]: 67.7% | viability, T/C [33]: 63.1% | viability, T/C [34]: 54.2% | viability, T/C [35]: 51% | viability, T/C [36]: 44.2%

Cc1[nH]c2ccccc2c1CCNCc1ccc(/C=C/C(=O)NO)cc1 + Cc1cnc(CNC(=O)c2c(=O)c3ccc(N4CCCN(C)CC4)nc3n3c2sc2ccccc23)cn1
IC50 (second compound 0.0316 µM): > 316 nM | IC50 (second compound 0.1 µM): > 316 nM | IC50 (second compound 0.316 µM): > 316 nM | IC50 (second compound 1 µM): > 316 nM | IC50 (second compound 3.16 µM): > 316 nM | IC50 (second compound 10 µM): 205 nM | viability, T/C (second compound 0.0316 µM, first compound 0.000999 µM): 101% | viability, T/C (second compound 0.0316 µM, first compound 0.00316 µM): 92.8% | viability, T/C (second compound 0.0316 µM, first compound 0.00999 µM): 99% | viability, T/C [1]: 90.6% | viability, T/C (second compound 0.0316 µM, first compound 0.0999 µM): 81.7% | viability, T/C [3]: 63.7% | viability, T/C (second compound 0.1 µM, first compound 0.000999 µM): 104% | viability, T/C (second compound 0.1 µM, first compound 0.00316 µM): 100% | viability, T/C (second compound 0.1 µM, first compound 0.00999 µM): 87.5% | viability, T/C [7]: 93.9% | viability, T/C (second compound 0.1 µM, first compound 0.0999 µM): 85.9% | viability, T/C [9]: 59.8% | viability, T/C (second compound 0.316 µM, first compound 0.000999 µM): 92.7% | viability, T/C (second compound 0.316 µM, first compound 0.00316 µM): 85.4% | viability, T/C (second compound 0.316 µM, first compound 0.00999 µM): 89.6% | viability, T/C [13]: 76.2% | viability, T/C (second compound 0.316 µM, first compound 0.0999 µM): 80.8% | viability, T/C [15]: 65.2% | viability, T/C (second compound 1 µM, first compound 0.000999 µM): 86.8% | viability, T/C (second compound 1 µM, first compound 0.00316 µM): 79.6% | viability, T/C (second compound 1 µM, first compound 0.00999 µM): 80.4% | viability, T/C [19]: 71.8% | viability, T/C (second compound 1 µM, first compound 0.0999 µM): 83.1% | viability, T/C [21]: 55.7% | viability, T/C (second compound 3.16 µM, first compound 0.000999 µM): 73.4% | viability, T/C (second compound 3.16 µM, first compound 0.00316 µM): 70.1% | viability, T/C (second compound 3.16 µM, first compound 0.00999 µM): 81.4% | viability, T/C [25]: 74.1% | viability, T/C (second compound 3.16 µM, first compound 0.0999 µM): 73.7% | viability, T/C [27]: 53.9% | viability, T/C (second compound 10 µM, first compound 0.000999 µM): 70% | viability, T/C (second compound 10 µM, first compound 0.00316 µM): 68.7% | viability, T/C (second compound 10 µM, first compound 0.00999 µM): 64.2% | viability, T/C [31]: 67% | viability, T/C (second compound 10 µM, first compound 0.0999 µM): 67.5% | viability, T/C [33]: 39.5%

O=C(NO)c1cnc(N2CCN(S(=O)(=O)c3ccc4ccccc4c3)CC2)nc1 + Cc1cnc(CNC(=O)c2c(=O)c3ccc(N4CCCN(C)CC4)nc3n3c2sc2ccccc23)cn1
IC50 (second compound 0.0316 µM): 546 nM | IC50 (second compound 0.1 µM): 447 nM | IC50 (second compound 0.316 µM): 450 nM | IC50 (second compound 1 µM): 353 nM | IC50 (second compound 3.16 µM): 380 nM | IC50 (second compound 10 µM): 263 nM | viability, T/C [1]: 90.2% | viability, T/C [2]: 88.9% | viability, T/C [3]: 68.9% | viability, T/C [4]: 29.1% | viability, T/C [5]: 0.23% | viability, T/C [6]: 0.25% | viability, T/C [7]: 93.5% | viability, T/C [8]: 85.8% | viability, T/C [9]: 67.2% | viability, T/C [10]: 10.9% | viability, T/C [11]: 0.24% | viability, T/C [12]: 0.21% | viability, T/C [13]: 98.1% | viability, T/C [14]: 83.4% | viability, T/C [15]: 66.7% | viability, T/C [16]: 15.7% | viability, T/C [17]: 0.18% | viability, T/C [18]: 0.24% | viability, T/C [19]: 77.9% | viability, T/C [20]: 73.2% | viability, T/C [21]: 53.9% | viability, T/C [22]: 15.3% | viability, T/C [23]: 0.16% | viability, T/C [24]: 0.14% | viability, T/C [25]: 72% | viability, T/C [26]: 64.5% | viability, T/C [27]: 58.1% | viability, T/C [28]: 8.79% | viability, T/C [29]: 0.12% | viability, T/C [30]: 0.18% | viability, T/C [31]: 62.7% | viability, T/C [32]: 62.8% | viability, T/C [33]: 47.6% | viability, T/C [34]: 0.23% | viability, T/C [35]: 0.17% | viability, T/C [36]: 0.18%

Source: PubChem BioAssay AID2060510 (Molecular Pharmacology Branch, DTP, NCI, 2025)
